Test results from patent publication US4045488A, “Aminophenyltetralin compounds” (Pfizer Inc., priority 1976, dated 1977).
Counter-ions that a name gives are not always drawn.

Columns and labels:
[1] = tested on: spontaneous motor activity; test: spontaneous motor activity in mice (circular actophotometers, activity counts); format: in vivo, mouse; details: for hyperactive response: same conditions, 0.32-32 mg./kg. i.p.
Description: (§1) On the other hand, the activity of the compounds of the present invention, as psychomotor stimulants, is based on a variety of tests, including (1) a study of their motor activity in mice and (2) a measurement of their ability to influence the loss of avoidance behavior in rats trained on a non-discriminated (Sidman) avoidance schedule.
A total of seven mice was employed at each dose level tested (viz., at 0.32, 1.0, 3.2, 10 and 32 mg./kg., i.p., respectively) and these mice were separated one to an activity cage. After an initial 1/2 hour exposure period (for acclimation purposes), each animal in the cage was treated with a sample of the drug intraperitoneally and immediately thereafter returned to said cage, with activity counts every 1/2 hour being recorded from that point on.

[2] = psychotropic (antidepressant, psychomotor stimulant) activity and side effects of the compounds, general statements; format: in vivo; details: general statement; compounds and their hydrochloride acid addition salts
[3] = tested on: non-discriminated (Sidman) avoidance behavior; test: non-discriminated (Sidman) avoidance behavior in rats, response rates; format: in vivo, rat; details: 5 and 10 mg./kg. i.p.
Excerpt: as §1
Eight mature male rats were trained in Lehigh Valley automatic multiple-operant conditioning chambers to avoid a 2.0 mA electric shock that would last for 0.75 second, or terminate sooner if the rat lever became activated during the shock. In these tests, lever presses postponed the onset of shock for an initial period of 30 seconds, while only 10 seconds elapsed between shocks if no intervening response was elicited. The rats were run for a 40-minute control period before receiving the drug and then for approximately 2.5 hours after each treatment.

SMILES: CN[C@@H]1CC[C@@H](c2ccccc2)c2ccccc21 (relative stereo) [Trans-isomer of Example IV, trans-dl-N-methyl-4-phenyl-1,2,3,4-tetrahydro-1-naphthylamine hydrochloride]
- time course (duration) of effect ([1]; after 32 mg./kg.): especially long-lived

SMILES: N[C@@H]1CC[C@@H](c2ccccc2)c2ccccc21 (relative stereo) [trans-dl-4-phenyl-1,2,3,4-tetrahydro-1-naphthylamine]
- antidepressant activity [2]: markedly high degree of antidepressant activity

SMILES: CN(C)[C@@H]1CC[C@@H](c2ccccc2)c2ccccc21 (relative stereo) [trans-dl-N,N-dimethyl-4-phenyl-1,2,3,4-tetrahydro-1-naphthylamine]
- antidepressant activity [2]: markedly high degree of antidepressant activity

SMILES: c1ccc([C@@H]2CC[C@@H](NC3CC3)c3ccccc32)cc1 (relative stereo) [trans-dl-N-cyclopropyl-4-phenyl-1,2,3,4-tetrahydro-1-naphthylamine]
- antidepressant activity [2]: markedly high degree of antidepressant activity

SMILES: CCN[C@@H]1CC[C@@H](c2ccccc2)c2ccccc21 (relative stereo) [trans-dl-N-ethyl-4-phenyl-1,2,3,4-tetrahydro-1-naphthylamine]
- antidepressant activity [2]: markedly high degree of antidepressant activity

SMILES: CC(C)N[C@@H]1CC[C@@H](c2ccccc2)c2ccccc21 (relative stereo) [trans-dl-N-isopropyl-4-phenyl-1,2,3,4-tetrahydro-1-naphthylamine]
- antidepressant activity [2]: markedly high degree of antidepressant activity

SMILES: CN[C@@H]1CC[C@@H](c2ccccc2)c2ccccc21 (relative stereo) [trans-dl-N-methyl-4-phenyl-1,2,3,4-tetrahydro-1-naphthylamine]
- antidepressant activity [2]: markedly high degree of antidepressant activity

SMILES: CN[C@@H]1CC[C@@H](c2ccccc2)c2ccccc21 [Trans-d-isomer of Example III, trans-d-N-Methyl-4-phenyl-1,2,3,4-tetrahydro-1-naphthylamine as the hydrochloride]
- effect on activity counts compared with d-amphetamine sulfate and methylphenidate ([1]; 10 mg./kg. i.p. versus d-amphetamine sulfate 3.2 mg./kg. and methylphenidate 10 mg./kg.): more pronounced than that of d-amphetamine sulfate at 3.2 mg./kg. and surpassing even that of methylphenidate at 10 mg./kg.
- effect on activity counts ([1]; 10 mg./kg. i.p., 30-60 minutes after treatment): markedly elevated the activity counts
- time course (duration) of effect ([1]; 10 mg./kg. versus d-amphetamine sulfate 3.2 mg./kg.): even more prolonged in its effect than did that of d-amphetamine sulfate
- duration of drug effect after administration [3]: approximately one and a half
- start of drug effect [3]: ≤ 20 min
- effect on response rates ([3]; in four out of eight rats): moderate to marked increase in response rates
- increase of response rates over normal pre-drug control levels ([3]; in four out of eight rats): 2-6 times
- increase of response rates over pre-drug control levels ([3]; in two other rats): about 1.5 times

SMILES: CN[C@H]1CC[C@H](c2ccccc2)c2ccccc21 [Trans-l-isomer of Example III, trans-l-N-methyl-4-phenyl-1,2,3,4-tetrahydro-1-naphthylamine hydrochloride]
- stimulant effect ([1]; tested at 10 and 32 mg./kg. i.p.): little evidence of a stimulant effect

SMILES: CNCCCN1c2ccccc2CCc2ccccc21 [desmethylimipramine, reference compound]
- hyperactive response [1]: failed to elicit any hyperactive response whatsoever

SMILES: CNCCCC1c2ccccc2C=Cc2ccccc21 [protriptlyine, reference compound]
- hyperactive response [1]: failed to elicit any hyperactive response whatsoever

SMILES: CN[C@@H]1CC[C@@H](c2ccccc2)c2ccccc21 [trans-d-N-methyl-4-phenyl-1,2,3,4-tetrahydro-1-naphthylamine]
- antidepressant activity [2]: markedly high degree of antidepressant activity
